Results taken from the NIST ThermoML archive (doi:10.1016/j.jct.2005.10.011).

Columns and labels:
[1] = 298.15 K, 101.33 kPa, Liquid; for viscosity: Capillary tube (Ostwald / Ubbelohde) method
[2] = isobaric coefficient of expansion; conditions: 298.15 K; 101.33 kPa; Liquid; vibrating tube densimeter
[3] = xn = mol fraction of the nth substance listed; conditions: 298.15 K, 101 kPa, Liquid

CCCCCCCCC [nonane]
Conditions	isobaric coefficient of expansion	mass density [kg/m3]	viscosity [mPa·s]
[1]	–	714.01	0.665
[2]	0.00108 1/K	–	–

Cc1ccccc1 [toluene]
Conditions	isobaric coefficient of expansion	mass density [kg/m3]	viscosity [mPa·s]
[1]	–	862.19	0.552
[2]	0.00109 1/K	–	–

CCCCCCCCC [nonane] + Cc1ccccc1
[3]
Conditions	mass density [kg/m3]
x2 = 0.0396	719.17
x2 = 0.1938	731.3
x2 = 0.2815	739.97
x2 = 0.3621	749.08
x2 = 0.4429	759.3
x2 = 0.6	782.29
x2 = 0.6627	792.62
x2 = 0.7595	809.87
x2 = 0.8399	825.37
x2 = 0.9168	841.23

CCCCCCC [heptane]
Conditions	isobaric coefficient of expansion	mass density [kg/m3]	viscosity [mPa·s]
[1]	–	679.69	0.395
[2]	0.00124 1/K	–	–

CCCCC [pentane] + Cc1ccccc1
[3]
Conditions	mass density [kg/m3]
x2 = 0.0415	629.87
x2 = 0.2011	668.27
x2 = 0.2799	687.21
x2 = 0.3647	707.61
x2 = 0.4341	724.3
x2 = 0.6011	764.45
x2 = 0.6821	783.95
x2 = 0.7502	800.32
x2 = 0.8213	817.43
x2 = 0.9137	839.65

CCCCCCCCCC [decane] + Cc1ccccc1
[3]
Conditions	mass density [kg/m3]
x2 = 0.0405	730.61
x2 = 0.1975	740.67
x2 = 0.2817	747.82
x2 = 0.3619	755.75
x2 = 0.4394	764.48
x2 = 0.6	785.86
x2 = 0.6811	798.34
x2 = 0.7615	811.84
x2 = 0.84	826.07
x2 = 0.92	841.69

Cc1ccccc1 [toluene] + CCCCCCC
[3]
Conditions	mass density [kg/m3]
x1 = 0.0398	678.24
x1 = 0.1999	693.04
x1 = 0.2791	721.62
x1 = 0.3596	736.18
x1 = 0.4416	764.46
x1 = 0.6048	779.21
x1 = 0.6825	793.71
x1 = 0.7593	808.12
x1 = 0.8463	823.09
x1 = 0.9132	837.25

CCCCCCCC [octane]
Conditions	isobaric coefficient of expansion	mass density [kg/m3]	viscosity [mPa·s]
[1]	–	698.59	0.514
[2]	0.00115 1/K	–	–

CCCCC [pentane]
Conditions	isobaric coefficient of expansion	mass density [kg/m3]	viscosity [mPa·s]
[1]	–	621.22	0.216
[2]	0.0016 1/K	–	–

CCCCCCCC [octane] + Cc1ccccc1
[3]
Conditions	mass density [kg/m3]
x2 = 0.0398	692.41
x2 = 0.1999	718.64
x2 = 0.2791	731.62
x2 = 0.3596	744.8
x2 = 0.4416	758.23
x2 = 0.6048	784.96
x2 = 0.6825	797.69
x2 = 0.7593	810.27
x2 = 0.8463	824.52
x2 = 0.9132	835.49

CCCCCCCCCC [decane]
Conditions	isobaric coefficient of expansion	mass density [kg/m3]	viscosity [mPa·s]
[1]	–	726.29	0.861
[2]	0.00104 1/K	–	–

CCCCCC [hexane] + Cc1ccccc1
[3]
Conditions	mass density [kg/m3]
x2 = 0.0406	657.47
x2 = 0.2028	690.93
x2 = 0.2804	706.95
x2 = 0.3596	723.29
x2 = 0.4423	740.35
x2 = 0.5997	772.81
x2 = 0.6757	788.5
x2 = 0.7597	805.83
x2 = 0.8412	822.63
x2 = 0.9199	838.87

CCCCCC [hexane]
Conditions	isobaric coefficient of expansion	mass density [kg/m3]	viscosity [mPa·s]
[1]	–	655.07	0.295
[2]	0.00138 1/K	–	–
